From patent publication US9452990B2, “Complement pathway modulators and uses thereof” (NOVARTIS AG, priority 2012, dated 2016) come the findings set out here.

The assay deals with human complement factor B (CVF-Bb complex) (Homo sapiens (Human), UniProt P00751). In words: Human Complement Factor B ELISA Assay. It is filed as biochemical. Put shortly:
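Preformed CVF-Bb complex (3 nM; cobra venom factor with recombinant human factors B and D) preincubated with compound 1 h, RT, in PBS pH 7.4, 10 mM MgCl2, 0.05% CHAPS. Plasma C3 added at 1 μM final for 1 h, then stopped; C3a product measured by ELISA, IC50 from % inhibition.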

Setting [1] is: CVF-Bb complex 3 nM, 1 hour preincubation with compound at room temperature, human C3 substrate 1 μM, C3a quantified by ELISA, read-out: Factor B IC50.

Structures can show the parent of a compound that is named as a salt. Where two headings read alike, the source gives them in different places.

As to `CC[C@H]1CN(C(=O)C[C@@H]2CCCCN2)CCN1c1nc(N)c2cc(OC)c(OC)c(F)c2n1` [Example 117, 1-[(S)-4-(4-Amino-8-fluoro-6,7-dimethoxy-quinazolin-2-yl)-3-ethyl-piperazin-1-yl]-2-(S)-piperidin-2-yl-ethanone], under setting [1], the IC50 came to 780 nM.
On the same count and under the same terms, for `CCC[C@H]1CN(C(=O)C[C@@H]2CCCN2)CCN1c1nc(N)c2cc(OC)c(OC)c(F)c2n1` [Example 118, 1-[(S)-4-(4-Amino-8-fluoro-6,7-dimethoxy-quinazolin-2-yl)-3-propyl-piperazin-1-yl]-2-(S)-pyrrolidin-2-yl-ethanone] the value was 270 nM.
As to `COc1cc2c(N)nc(N3CCN(C(=O)C[C@@H]4CCN4)C[C@@H]3c3ccccc3)nc2c(F)c1OC` [Example 119, 1-[(S)-4-(4-Amino-8-fluoro-6,7-dimethoxy-quinazolin-2-yl)-3-phenyl-piperazin-1-yl]-2-(S)-azetidin-2-yl-ethanone hydrochloride], the IC50 turned out to be 610 nM.
In the case of `COc1cc2c(N)nc(N3CCN(C(=O)C[C@@H]4CCCN4)C[C@@H]3c3ccccc3)nc2c(F)c1OC` [Example 120, 1-[(S)-4-(4-Amino-8-fluoro-6,7-dimethoxy-quinazolin-2-yl)-3-phenyl-piperazin-1-yl]-2-(S)-pyrrolidin-2-yl-ethanone], the IC50 under setting [1] was 80 nM.
Take `COc1cc2c(N)nc(N3CCN(C(=O)C[C@@H]4CCCCN4)C[C@@H]3c3ccccc3)nc2c(F)c1OC` [Example 121, 1-[(S)-4-(4-Amino-8-fluoro-6,7-dimethoxy-quinazolin-2-yl)-3-phenyl-piperazin-1-yl]-2-(S)-piperidin-2-yl-ethanone]: the IC50 under setting [1] worked out at 20 nM.
On the same count and under the same terms, for `COc1cc2c(N)nc(N3CCN(C(=O)C[C@@H]4CCCNC4)C[C@@H]3c3ccccc3)nc2c(F)c1OC` [Example 122, 1-[(S)-4-(4-Amino-8-fluoro-6,7-dimethoxy-quinazolin-2-yl)-3-phenyl-piperazin-1-yl]-2-(S)-piperidin-3-yl-ethanone] the value was 200 nM; for `COc1cc2c(N)nc(N3CCN(C(=O)CC4CNCCO4)C[C@@H]3c3ccccc3)nc2c(F)c1OC` (stereo partly drawn) [Example 123, 1-[(S)-4-(4-Amino-8-fluoro-6,7-dimethoxy-quinazolin-2-yl)-3-phenyl-piperazin-1-yl]-2-morpholin-2-yl-ethanone], 890 nM; for `COCCOc1c(OC)cc2c(N)nc(N3CCN(C(=O)C[C@@H]4CCCN4)CC3)nc2c1F` [Example 124, 1-{4-[4-Amino-8-fluoro-6-methoxy-7-(2-methoxy-ethoxy)-quinazolin-2-yl]-piperazin-1-yl}-2-(S)-pyrrolidin-2-yl-ethanone], 5950 nM.
As for `COCCOc1c(OC)cc2c(N)nc(N3CCN(C(=O)C[C@@H]4CCCCN4)CC3)nc2c1F` [Example 125, 1-{4-[4-Amino-8-fluoro-6-methoxy-7-(2-methoxy-ethoxy)-quinazolin-2-yl]-piperazin-1-yl}-2-(S)-piperidin-2-yl-ethanone], the IC50 under setting [1] was 9950 nM.
The same measure, in the same setting: for `COc1cc2c(N)nc(N3CCN(C(=O)C[C@@H]4CCCCN4)CC3)nc2c(C#N)c1OC` [Example 126, (S)-4-Amino-6,7-dimethoxy-2-(4-(2-(piperidin-2-yl)acetyl)piperazin-1-yl)quinazoline-8-carbonitrile] the value was 2900 nM; for `COc1cc2c(N)nc(N3CCN(C(=O)C[C@H]4NCCc5ccccc54)CC3)nc2c(F)c1OC` [Example 127, 1-[4-(4-Amino-8-fluoro-6,7-dimethoxy-quinazolin-2-yl)-piperazin-1-yl]-2-(R)-1,2,3,4-tetrahydro-isoquinolin-1-yl-ethanone], 200 nM.
As to `COc1cc2c(N)nc(N3CCN(C(=O)CC4NCCc5cc(F)ccc54)CC3)nc2c(F)c1OC` (stereo not drawn) [Example 128, 1-[4-(4-Amino-8-fluoro-6,7-dimethoxy-quinazolin-2-yl)-piperazin-1-yl]-2-(6-fluoro-1,2,3,4-tetrahydro-isoquinolin-1-yl)-ethanone], the IC50 under setting [1] was found to be 120 nM.
The same measure, in the same setting: for `COc1cc2c(N)nc(N3CCN(C(=O)C[C@@H](CN)c4ccccc4)CC3)nc2c(F)c1OC` [Example 129, (R)-4-Amino-1-[4-(4-amino-8-fluoro-6,7-dimethoxy-quinazolin-2-yl)-piperazin-1-yl]-3-phenyl-butan-1-one] the value was 710 nM.
Same read-out and setting: for `COc1cc2c(N)nc(N3CCN(C(=O)C[C@@H](C(N)=O)c4ccc(F)cc4)CC3)nc2c(F)c1OC` [Example 130, (R)-4-[4-(4-Amino-8-fluoro-6,7-dimethoxy-quinazolin-2-yl)-piperazin-1-yl]-2-(4-fluoro-phenyl)-4-oxo-butyramide] the value was 10 nM.
On to `[2H]C([2H])([2H])C([2H])([2H])N[C@H](CC(=O)N1CCN(c2nc(N)c3cc(OC)c(OC)c(F)c3n2)CC1)c1ccc(F)cc1` [Example 131, (R)-1-(4-(4-amino-8-fluoro-6,7-dimethoxyquinazolin-2-yl)piperazin-1-yl)-3-(1,1,2,2,2-d^5 ethylamino)-3-(4-fluorophenyl)propan-1-one], for which, under setting [1], the IC50 turned out to be 3 nM.
